Reference: publication PMC9481570, “A small molecule antagonist of SMN disrupts the interaction between SMN and RNAP II” (Nature Communications, 2022)
Values joined by “and” are separate entries in the source; they are usually repeats but may differ in a detail not shown here. Identical values can stand only once.

Columns and labels:
Assay in all cases: Affinity-purification and mass spectrometry (AP-MS) chemical proteomics, all proteins;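 as to Difference: 200 µM free competitor with 20 µM biotin probe overnight in lysate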
Format in all cases: binding
[1] = molecular target: T1, proteins displaced from immobilized biotin-Cmpd 1 pulldowns (U2OS cell lysate) (Homo sapiens, UniProt P54098); conditions: GN=POLG (P54098)
T1 construct: endogenous in cells; host or cells: U2OS

[2] = molecular target: T2, proteins displaced from immobilized biotin-Cmpd 1 pulldowns (U2OS cell lysate) (Homo sapiens, UniProt P28370); conditions: GN=SMARCA1 (P28370)
T2 construct: endogenous in cells; host or cells: U2OS

[3] = molecular target: T3, proteins displaced from immobilized biotin-Cmpd 1 pulldowns (U2OS cell lysate) (Homo sapiens, UniProt Q8WXX7); conditions: GN=AUTS2 (Q8WXX7)
T3 construct: endogenous in cells; host or cells: U2OS

[4] = molecular target: T4, proteins displaced from immobilized biotin-Cmpd 1 pulldowns (U2OS cell lysate) (Homo sapiens, UniProt P07339); conditions: GN=CTSD (P07339)
T4 construct: endogenous in cells; host or cells: U2OS

[5] = molecular target: T5, proteins displaced from immobilized biotin-Cmpd 1 pulldowns (U2OS cell lysate) (Homo sapiens, UniProt O95478); conditions: GN=NSA2 (O95478)
T5 construct: endogenous in cells; host or cells: U2OS

[6] = molecular target: T6, proteins displaced from immobilized biotin-Cmpd 1 pulldowns (U2OS cell lysate) (Homo sapiens, UniProt Q14566); conditions: GN=MCM6 (Q14566)
T6 construct: endogenous in cells; host or cells: U2OS

[7] = molecular target: T7, proteins displaced from immobilized biotin-Cmpd 1 pulldowns (U2OS cell lysate) (Homo sapiens, UniProt Q9UN81); conditions: GN=L1RE1 (Q9UN81)
T7 construct: endogenous in cells; host or cells: U2OS

[8] = molecular target: T8, proteins displaced from immobilized biotin-Cmpd 1 pulldowns (U2OS cell lysate) (Homo sapiens, UniProt P19367); conditions: GN=HK1 (P19367)
T8 construct: endogenous in cells; host or cells: U2OS

[9] = molecular target: T9, proteins displaced from immobilized biotin-Cmpd 1 pulldowns (U2OS cell lysate) (Homo sapiens, UniProt Q9UI42); conditions: GN=CPA4 (Q9UI42)
T9 construct: endogenous in cells; host or cells: U2OS

[10] = molecular target: T10, proteins displaced from immobilized biotin-Cmpd 1 pulldowns (U2OS cell lysate) (Homo sapiens, UniProt O75616); conditions: GN=ERAL1 (O75616)
T10 construct: endogenous in cells; host or cells: U2OS
T10 sequence (O75616 44-437): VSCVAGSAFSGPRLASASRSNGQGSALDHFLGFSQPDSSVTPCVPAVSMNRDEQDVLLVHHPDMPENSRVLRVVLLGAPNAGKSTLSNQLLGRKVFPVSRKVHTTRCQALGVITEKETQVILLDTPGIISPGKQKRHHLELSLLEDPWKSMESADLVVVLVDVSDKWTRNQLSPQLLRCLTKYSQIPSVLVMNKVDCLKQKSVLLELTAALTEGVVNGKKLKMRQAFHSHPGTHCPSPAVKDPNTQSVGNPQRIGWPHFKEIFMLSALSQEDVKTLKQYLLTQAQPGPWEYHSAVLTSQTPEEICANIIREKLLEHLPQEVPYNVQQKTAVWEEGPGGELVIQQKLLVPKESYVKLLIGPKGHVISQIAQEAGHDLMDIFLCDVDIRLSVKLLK

T2 sequence (P28370 whole entry): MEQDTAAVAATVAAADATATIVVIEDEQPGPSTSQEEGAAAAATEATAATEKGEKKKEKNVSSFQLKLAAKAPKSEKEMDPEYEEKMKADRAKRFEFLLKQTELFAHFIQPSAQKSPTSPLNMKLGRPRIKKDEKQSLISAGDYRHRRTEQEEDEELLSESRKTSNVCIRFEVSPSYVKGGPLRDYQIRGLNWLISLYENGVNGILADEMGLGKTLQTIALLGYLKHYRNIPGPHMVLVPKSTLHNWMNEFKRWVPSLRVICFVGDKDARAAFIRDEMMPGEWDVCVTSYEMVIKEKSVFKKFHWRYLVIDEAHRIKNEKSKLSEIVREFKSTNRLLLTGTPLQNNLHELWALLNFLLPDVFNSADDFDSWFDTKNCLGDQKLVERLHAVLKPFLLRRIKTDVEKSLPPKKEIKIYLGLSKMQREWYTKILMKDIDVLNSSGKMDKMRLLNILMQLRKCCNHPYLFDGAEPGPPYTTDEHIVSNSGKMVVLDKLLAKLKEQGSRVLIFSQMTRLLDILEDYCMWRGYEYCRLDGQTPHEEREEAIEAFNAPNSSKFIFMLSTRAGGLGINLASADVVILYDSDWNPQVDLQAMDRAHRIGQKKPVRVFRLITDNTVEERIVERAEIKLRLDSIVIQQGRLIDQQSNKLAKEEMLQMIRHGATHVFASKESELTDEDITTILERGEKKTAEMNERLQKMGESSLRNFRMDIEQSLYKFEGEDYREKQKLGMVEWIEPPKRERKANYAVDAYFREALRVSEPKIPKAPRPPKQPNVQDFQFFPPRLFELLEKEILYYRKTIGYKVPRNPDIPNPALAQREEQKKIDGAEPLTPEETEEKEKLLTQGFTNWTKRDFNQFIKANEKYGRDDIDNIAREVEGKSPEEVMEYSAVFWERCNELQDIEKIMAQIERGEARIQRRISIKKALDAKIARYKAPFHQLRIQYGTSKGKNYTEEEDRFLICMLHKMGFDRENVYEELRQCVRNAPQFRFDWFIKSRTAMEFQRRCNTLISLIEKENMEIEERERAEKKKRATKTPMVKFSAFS
T9 sequence (Q9UI42 114-421): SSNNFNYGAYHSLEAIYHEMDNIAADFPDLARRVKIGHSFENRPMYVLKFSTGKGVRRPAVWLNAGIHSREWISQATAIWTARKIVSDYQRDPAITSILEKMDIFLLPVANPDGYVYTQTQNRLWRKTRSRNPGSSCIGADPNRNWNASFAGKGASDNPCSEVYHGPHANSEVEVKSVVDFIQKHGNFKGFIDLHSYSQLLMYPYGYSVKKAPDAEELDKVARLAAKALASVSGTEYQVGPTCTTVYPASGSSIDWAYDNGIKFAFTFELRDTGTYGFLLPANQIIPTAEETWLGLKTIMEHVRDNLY
T1 sequence (P54098 whole entry): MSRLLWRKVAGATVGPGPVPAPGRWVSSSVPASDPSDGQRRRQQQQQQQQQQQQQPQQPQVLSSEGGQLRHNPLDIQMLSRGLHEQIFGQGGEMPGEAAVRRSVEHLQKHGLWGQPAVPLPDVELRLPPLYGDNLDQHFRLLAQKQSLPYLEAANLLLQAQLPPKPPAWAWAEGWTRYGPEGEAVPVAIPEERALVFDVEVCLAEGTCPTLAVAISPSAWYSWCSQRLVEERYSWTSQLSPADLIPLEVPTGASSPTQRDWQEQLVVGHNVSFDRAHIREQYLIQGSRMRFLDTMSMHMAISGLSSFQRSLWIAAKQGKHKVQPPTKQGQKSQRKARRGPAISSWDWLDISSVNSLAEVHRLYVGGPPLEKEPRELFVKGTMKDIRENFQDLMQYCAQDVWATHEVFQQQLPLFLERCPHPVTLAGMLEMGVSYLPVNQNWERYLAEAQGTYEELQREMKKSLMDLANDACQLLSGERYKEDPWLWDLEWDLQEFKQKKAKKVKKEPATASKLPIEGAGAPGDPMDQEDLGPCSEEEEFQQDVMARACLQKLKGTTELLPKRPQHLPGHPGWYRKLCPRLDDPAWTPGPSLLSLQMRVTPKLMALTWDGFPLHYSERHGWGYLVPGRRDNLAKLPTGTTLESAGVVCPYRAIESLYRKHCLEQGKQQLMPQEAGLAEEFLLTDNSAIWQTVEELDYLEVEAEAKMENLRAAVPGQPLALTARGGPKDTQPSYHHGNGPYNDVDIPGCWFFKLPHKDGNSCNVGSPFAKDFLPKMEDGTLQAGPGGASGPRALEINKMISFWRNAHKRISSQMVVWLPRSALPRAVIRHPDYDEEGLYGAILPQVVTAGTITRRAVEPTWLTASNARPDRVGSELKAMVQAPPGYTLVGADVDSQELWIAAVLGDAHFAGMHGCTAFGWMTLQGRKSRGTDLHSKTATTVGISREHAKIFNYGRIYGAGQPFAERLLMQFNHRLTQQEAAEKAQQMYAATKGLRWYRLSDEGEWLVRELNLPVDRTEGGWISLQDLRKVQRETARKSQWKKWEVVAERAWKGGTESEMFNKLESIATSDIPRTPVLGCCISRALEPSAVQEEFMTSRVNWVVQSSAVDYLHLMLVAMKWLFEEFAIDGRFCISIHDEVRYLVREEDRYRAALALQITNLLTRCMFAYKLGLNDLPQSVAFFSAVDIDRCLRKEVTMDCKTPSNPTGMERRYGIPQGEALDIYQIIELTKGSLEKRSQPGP
T3 sequence (Q8WXX7 whole entry): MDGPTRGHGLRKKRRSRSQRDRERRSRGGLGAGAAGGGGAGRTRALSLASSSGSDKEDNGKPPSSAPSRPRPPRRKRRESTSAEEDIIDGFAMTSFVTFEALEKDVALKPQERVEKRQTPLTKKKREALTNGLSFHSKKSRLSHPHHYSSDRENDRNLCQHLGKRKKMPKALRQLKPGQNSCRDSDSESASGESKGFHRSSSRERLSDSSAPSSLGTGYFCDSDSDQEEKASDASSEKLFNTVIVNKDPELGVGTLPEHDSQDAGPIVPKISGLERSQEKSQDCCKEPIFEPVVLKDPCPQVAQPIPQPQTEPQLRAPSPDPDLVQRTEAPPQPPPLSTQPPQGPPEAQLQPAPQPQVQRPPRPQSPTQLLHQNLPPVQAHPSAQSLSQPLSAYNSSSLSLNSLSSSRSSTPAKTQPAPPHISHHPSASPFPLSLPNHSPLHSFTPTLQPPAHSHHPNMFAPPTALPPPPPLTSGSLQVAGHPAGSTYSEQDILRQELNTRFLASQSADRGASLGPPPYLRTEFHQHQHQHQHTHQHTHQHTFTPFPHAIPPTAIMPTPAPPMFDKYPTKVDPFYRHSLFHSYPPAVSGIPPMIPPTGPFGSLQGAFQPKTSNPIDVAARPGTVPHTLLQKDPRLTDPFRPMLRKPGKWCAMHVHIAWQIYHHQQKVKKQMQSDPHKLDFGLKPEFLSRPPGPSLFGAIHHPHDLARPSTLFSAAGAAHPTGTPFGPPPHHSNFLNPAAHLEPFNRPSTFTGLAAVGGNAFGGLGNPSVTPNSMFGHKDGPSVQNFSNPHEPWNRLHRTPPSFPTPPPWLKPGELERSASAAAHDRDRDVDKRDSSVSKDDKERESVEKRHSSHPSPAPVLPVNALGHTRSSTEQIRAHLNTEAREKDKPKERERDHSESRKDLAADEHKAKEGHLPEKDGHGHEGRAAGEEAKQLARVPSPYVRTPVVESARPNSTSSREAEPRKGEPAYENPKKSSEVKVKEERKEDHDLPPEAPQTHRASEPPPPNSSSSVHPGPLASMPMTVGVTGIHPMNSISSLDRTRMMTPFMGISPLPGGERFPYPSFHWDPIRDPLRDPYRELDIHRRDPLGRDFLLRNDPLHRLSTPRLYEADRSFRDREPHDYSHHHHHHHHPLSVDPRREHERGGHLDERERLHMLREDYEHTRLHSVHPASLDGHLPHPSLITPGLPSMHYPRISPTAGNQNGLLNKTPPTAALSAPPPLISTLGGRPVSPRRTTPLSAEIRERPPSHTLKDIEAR
T6 sequence (Q14566 whole entry): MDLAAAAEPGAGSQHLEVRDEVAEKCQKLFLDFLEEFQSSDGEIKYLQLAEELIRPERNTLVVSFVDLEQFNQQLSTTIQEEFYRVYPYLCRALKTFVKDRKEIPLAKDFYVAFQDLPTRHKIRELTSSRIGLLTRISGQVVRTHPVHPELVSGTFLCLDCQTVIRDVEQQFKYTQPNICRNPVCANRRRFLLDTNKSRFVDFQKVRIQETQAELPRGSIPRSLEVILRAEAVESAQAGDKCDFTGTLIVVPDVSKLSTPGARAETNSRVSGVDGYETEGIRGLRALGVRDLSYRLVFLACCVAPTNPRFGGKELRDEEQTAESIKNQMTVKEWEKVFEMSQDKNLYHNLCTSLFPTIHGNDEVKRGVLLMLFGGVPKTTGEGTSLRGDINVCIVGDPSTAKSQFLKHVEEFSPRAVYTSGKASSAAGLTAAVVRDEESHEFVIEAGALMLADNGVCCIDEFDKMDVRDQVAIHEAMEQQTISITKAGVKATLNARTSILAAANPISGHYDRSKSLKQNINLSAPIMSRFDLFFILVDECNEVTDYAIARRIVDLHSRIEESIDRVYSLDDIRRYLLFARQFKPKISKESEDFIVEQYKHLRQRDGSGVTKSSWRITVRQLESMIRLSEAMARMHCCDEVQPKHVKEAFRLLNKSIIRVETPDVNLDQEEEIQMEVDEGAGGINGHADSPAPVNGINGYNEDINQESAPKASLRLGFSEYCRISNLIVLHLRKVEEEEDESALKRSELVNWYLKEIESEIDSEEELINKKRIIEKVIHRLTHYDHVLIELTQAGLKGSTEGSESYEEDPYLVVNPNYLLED

Cn1c2c(c(=N)c3c1CCC3)CCC2 [Compound 1, 4-methyl-2,3,4,5,6,7-hexahydrodicyclopenta[b,e]pyridin-8(1H)-imine]
Difference ([1]; Cmpd minus DMSO, -LOG(P-value) 0.92162): 0.489 | iBAQ Cmpd ([1]; replicates 1-3): 17.0695 and 17.0761 and 17.6776 | Difference ([2]; Cmpd minus DMSO, -LOG(P-value) 1.24318): 1.73 | iBAQ Cmpd ([2]; replicates 1-3): 17.0232 and 15.8844 and 17.1364 | Difference ([3]; Cmpd minus DMSO, -LOG(P-value) 1.37908): 1.498 | iBAQ Cmpd ([3]; replicates 1-3): 16.2582 and 17.12 and 17.1513 | Difference ([4]; Cmpd minus DMSO, -LOG(P-value) 0.933319): -3.118 | iBAQ Cmpd ([4]; replicates 1-3): 18.4576 and 18.593 and 15.0798 | Difference ([5]; Cmpd minus DMSO, -LOG(P-value) 0.709566): 1.456 | iBAQ Cmpd ([5]; replicates 1-3): 18.8418 and 18.1506 and 17.9444 | Difference ([6]; Cmpd minus DMSO, -LOG(P-value) 0.814851): 1.097 | iBAQ Cmpd ([6]; replicates 1-3): 19.4847 and 18.183 and 18.682 | Difference ([7]; Cmpd minus DMSO, -LOG(P-value) 0.981964): 1.653 | iBAQ Cmpd ([7]; replicates 1-3): 17.9091 and 17.4238 and 17.5156 | Difference ([8]; Cmpd minus DMSO, -LOG(P-value) 0.855582): 0.9514 | iBAQ Cmpd ([8]; replicates 1-3): 18.5229 and 17.0452 and 17.0803 | Difference ([9]; Cmpd minus DMSO, -LOG(P-value) 1.07291): -1.567 | iBAQ Cmpd ([9]; replicates 1-3): 17.2042 and 16.9875 and 16.0895 | Difference ([10]; Cmpd minus DMSO, -LOG(P-value) 0.929321): 2.334 | iBAQ Cmpd ([10]; replicates 1-3): 17.6381 and 15.7018 and 17.9385
